From publication PMC4888466 (Biochemical Journal, 2016)

Experiments:
RML-1 = target: T1, RML-1 (Caenorhabditis elegans, UniProt Q9XUS4); assay: EnzChek pyrophosphate assay, […] nm; assay type: biochemical; conditions: 1 mM Glc-1-P; 5 mM MgCl2, pH 7.5, 25°C
T1 sequence (Q9XUS4 1-511): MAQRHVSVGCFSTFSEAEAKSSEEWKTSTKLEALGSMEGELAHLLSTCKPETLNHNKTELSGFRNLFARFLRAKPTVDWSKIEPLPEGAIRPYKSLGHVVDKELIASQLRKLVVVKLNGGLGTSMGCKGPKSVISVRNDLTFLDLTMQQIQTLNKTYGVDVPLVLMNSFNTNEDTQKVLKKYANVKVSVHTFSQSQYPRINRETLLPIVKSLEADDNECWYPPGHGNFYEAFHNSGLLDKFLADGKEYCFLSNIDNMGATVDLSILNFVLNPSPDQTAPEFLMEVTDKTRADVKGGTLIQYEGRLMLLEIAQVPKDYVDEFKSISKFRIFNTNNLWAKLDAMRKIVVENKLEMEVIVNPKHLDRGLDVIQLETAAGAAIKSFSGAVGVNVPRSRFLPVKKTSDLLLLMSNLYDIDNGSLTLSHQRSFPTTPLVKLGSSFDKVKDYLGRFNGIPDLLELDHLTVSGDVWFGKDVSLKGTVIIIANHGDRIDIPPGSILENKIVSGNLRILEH

RML-4–RML-5 = target: T2, RML-4–RML-5 (Caenorhabditis elegans, UniProt Q17556); assay: LC–MS; assay type: biochemical; conditions: formed from dTDP-4-keto-6-deoxyglucose with RML-3 and NAD(P)H, 25°C
T2 sequence (Q17556 1-631): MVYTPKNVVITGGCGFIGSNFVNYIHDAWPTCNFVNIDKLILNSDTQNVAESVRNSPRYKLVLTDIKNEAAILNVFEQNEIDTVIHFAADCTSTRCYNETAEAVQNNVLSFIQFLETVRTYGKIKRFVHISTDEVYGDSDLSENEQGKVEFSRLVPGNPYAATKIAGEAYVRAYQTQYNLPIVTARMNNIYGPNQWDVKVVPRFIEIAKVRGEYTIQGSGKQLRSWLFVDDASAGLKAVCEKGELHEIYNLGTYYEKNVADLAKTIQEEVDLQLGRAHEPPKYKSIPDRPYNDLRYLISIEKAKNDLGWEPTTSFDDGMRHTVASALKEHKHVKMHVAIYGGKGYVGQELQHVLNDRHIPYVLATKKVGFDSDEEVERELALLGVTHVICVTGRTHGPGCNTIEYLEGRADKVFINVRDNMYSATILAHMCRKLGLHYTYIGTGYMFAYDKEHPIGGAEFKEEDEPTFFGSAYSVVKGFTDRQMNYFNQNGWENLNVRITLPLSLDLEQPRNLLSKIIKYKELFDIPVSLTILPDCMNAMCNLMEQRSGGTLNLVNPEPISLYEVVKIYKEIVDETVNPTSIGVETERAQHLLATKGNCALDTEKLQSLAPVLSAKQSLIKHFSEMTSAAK
T2 sequence (Q95XM5 1-383 partner): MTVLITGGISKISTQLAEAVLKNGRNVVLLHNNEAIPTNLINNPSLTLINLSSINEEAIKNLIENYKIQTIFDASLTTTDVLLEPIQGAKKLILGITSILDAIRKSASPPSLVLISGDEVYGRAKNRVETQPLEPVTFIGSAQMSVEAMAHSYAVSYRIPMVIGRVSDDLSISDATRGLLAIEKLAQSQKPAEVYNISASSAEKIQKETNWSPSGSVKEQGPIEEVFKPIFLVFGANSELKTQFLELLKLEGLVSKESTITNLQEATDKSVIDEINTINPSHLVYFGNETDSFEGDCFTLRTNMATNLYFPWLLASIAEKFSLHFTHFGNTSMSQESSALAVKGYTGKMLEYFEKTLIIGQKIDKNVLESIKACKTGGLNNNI

| Km (RML-1) | Structure (SMILES) | LC-MS; 1H NMR and COSY of HPLC-purified product (RML-4–RML-5) |
| --- | --- | --- |
| 9.47 ± 1.7 µM | O=c1ccn([C@@H]2O[C@H](COP(=O)(O)OP(=O)(O)OP(=O)(O)O)[C@@H](O)[C@H]2O)c(=O)[nH]1 [UTP] | – |
| – | Cc1cn([C@H]2C[C@H](O)[C@@H](COP(=O)(O)OP(=O)(O)O[C@H]3O[C@@H](C)[C@H](O)[C@@H](O)[C@H]3O)O2)c(=O)[nH]c1=O [dTDP-rhamnose] | the final product is dTDP-rhamnose when dTDP-4-keto-6-deoxyglucose is incubated with RML-3 and RML-4–RML-5 |
| 24.2 ± 2.86 µM | Cc1cn([C@H]2C[C@H](O)[C@@H](COP(=O)(O)OP(=O)(O)OP(=O)(O)O)O2)c(=O)[nH]c1=O [dTTP] | – |
